Columns and labels:
Cavia porcellus [1] = species on record: Cavia porcellus; assay: Compound was tested for effective dose required for 50% of maximum response in guinea pig trachea; type: functional; conditions: read-out: ED50 (the source's name)
Cavia porcellus [2] = species on record: Cavia porcellus; assay: Intrinsic activity in guinea pig trachea; type: functional
Cavia porcellus [3] = species on record: Cavia porcellus; assay: Intrinsic activity (n=5) in guinea pig right atrium
Cavia porcellus [4] = species on record: Cavia porcellus; assay: Compound was tested for effective dose required for 25% of maximum response in guinea pig right atrium
Canis familiaris [5] = assay: Compound was tested in anesthetized dogs for increase in heart rate (equipotent dose at ED25) Mean ED25 value, obtained at a dose of 0.021 ug/kg; type: functional; conditions: Canis lupus familiaris
Canis familiaris [6] = assay: Compound was tested in anesthetized dogs for inhibition of bronchoconstriction (equipotent dose at ED50) Mean ED50 value, obtained at a dose of 0.054 ug/kg; type: functional; conditions: Canis lupus familiaris, Lung
Cavia porcellus [7] = species on record: Cavia porcellus; assay: Compound was tested for effective dose required for 25% of maximum response in guinea pig right atrium; maximal activity was obtained at 1 x 10 e-5 mol/L

EC50 (Cavia porcellus [1]) | Structure (SMILES) | Intrinsic activity (Cavia porcellus [2]) | Intrinsic activity (Cavia porcellus [3]) | ED25 (Cavia porcellus [4]) | ED25 (Canis familiaris [5]) | ED50 (Canis familiaris [6]) | ED25 (Cavia porcellus [7])
11 nM | CCC(NC(C)C)C(O)c1ccc(O)c2[nH]c(=O)ccc12 (configuration not stated) [PROCATEROL] | 0.98 | 0.6 | 5.7 nM | – | – | –
– | CC(C)NCC(O)c1ccc(O)c(O)c1 (configuration not stated) [ISOPROTERENOL] | – | – | – | 0.001 mg/kg | 0.001 mg/kg | –
– | CC(C)(C)NCC(O)c1cc(O)cc(O)c1 (configuration not stated) [TERBUTALINE] | 0.7 | 0.73 | – | – | – | –
1220 nM | CCC(NC(C)C)C(O)c1cc(O)cc2c1CCC(=O)N2 (configuration not stated) | 0.6 | 0.27 | 566 nM | – | – | –
225 nM | CCC(NC(C)C)C(O)c1cc(O)cc2nc(O)ccc12 (configuration not stated) | 0.5 | – | – | 0.0871 mg/kg | 0.0417 mg/kg | maximal activity was obtained at 1 x 10 e-5 mol/L

From ChEMBL document CHEMBL1121905, “erythro-5-[1-Hydroxy-2-(isopropylamino)butyl]-7-hydroxycarbostyril, a terbutaline-type derivative of the bronchodilator procaterol” (1981)
